Results from US20100047841A1, “SYNTHESIS OF DESACETOXYTUBULYSIN H AND ANALOGS THEREOF” (University of Pittsburgh-of the Commonwealth System of …, priority 2007, published 2010).
“Also recorded” adds a separate entry of the source. Counter-ions that a name gives are not always drawn.

How the values were obtained:
[1] = tested on: HeLa human cervical carcinoma cells; assay: High-content analysis of mitotic arrest in HeLa cells; format: cell-based; details: for Microtubule Density MDEC (minimum detectable effective concentration) / Mitotic Index MDEC (percentage of phosphohistone H3-positive cells) / Nuclear Condensation MDEC (minimum detectable effective concentration) / EC50: 20 hours treatment, average of four experiments ± SD; for EC50: Homo sapiens, read-out: Cell Density EC50; for activity in high-content analysis of mitotic arrest (in words): all endpoints measured
Description: The effects of tubulysin analogs on mitotic arrest and cellular microtubules were studied. HeLa human cervical carcinoma cells (10,000 per well) were plated in collagen-1 coated 384-well microplates and were treated with vehicle (DMSO) or ten two-fold concentration gradients of test agents within 4-6 hours of seeding. Cells were incubated for 20 hours at 37° C., fixed with formaldehyde, and labeled with 10 μg/mL Hoechst 33342 in Hank's balanced salt solution (HBSS). Cells were permeabilized with 0.5% (w/w) Triton X-100 for 5 min at room temperature and incubated with a primary antibody cocktail consisting of an HBSS solution containing rabbit polyclonal anti-phosphohistone H3 (Ser10, 1:500, Upstate), and mouse monoclonal anti-α-tubulin (1:3000, Sigma), followed by a mixture of FITC-labeled donkey anti-mouse IgG (1:500) and Cy3-labeled donkey anti-rabbit IgG (1:500). Cells were rinsed once with HBSS and stored at 4° C. in HBSS until analysis.
Microplates were analyzed with an ArrayScanII instrument (Cellomics, Pittsburgh, Pa.) using the Target Activation Bioapplication (Cellomics, Inc.). Within the application, 1,000 individual cells in each well were imaged at three different wavelengths, using an Omega XF93 filter set at excitation/emission wavelengths of 350/461 nm (Hoechst), 494/519 nm (FITC), and 556/573 nm (Cy3). The following parameters were used for data analysis: average nuclear intensity, nuclei per field, average nuclear FITC intensity, and average nuclear Cy3 intensity. A nuclear mask was generated from Hoechst 33342-stained nuclei. Microtubule density and histone H3 phosphorylation were measured in the FITC and Cy3 channel, respectively. Microtubule density was defined as the average green (FITC) pixel intensity in an area defined by the nuclear mask. For determination of mitotic index and nuclear condensation, thresholds for Hoechst 33342 and phosphohistone-H3 intensities were defined as the average Hoechst 33342 or Cy3 intensity plus one standard deviation from twenty-eight vehicle-treated wells placed in the center of the microplate.
Cells were classified as positive if their average Hoechst 33342 or Cy3 intensity exceeded this threshold. To illustrate visually the effects of test agents on cellular microtubules and mitotic arrest, the identical 384-well plates then were used to acquire higher resolution images of selected wells.
Asynchronously growing HeLa cells were treated for 20 hours with each compound in collagen-coated 384 well microplates, fixed, and incubated with primary antibodies for tubulin and the mitotic marker protein phosphohistone H3, followed by FITC and Cy3-conjugated secondary antibodies, respectively. Cells were detected by nuclear counterstaining with Hoechst 33342, which also provided information about chromatin condensation and cell density as markers of cell death.

[2] = tested on: bovine brain tubulin (vinca domain); assay: Inhibition of [3H]vinblastine binding to tubulin (centrifugal gel filtration); details: for % Inhibition of [3H]vinblastine binding by 5 μM test agent / IC50: 10 μM radiotracer, 10 μM tubulin; for % Inhibition of [3H]vinblastine binding by 5 μM test agent: 30 min room temperature; for IC50: test agent 0.5-100 μM, Hill fit
Description: The new compounds were tested for their abilities to bind at the vinca domain and at the related peptide/depsipeptide site on tubulin using a modification of a centrifugal gel filtration method described by Bai et al., Mol. Pharmacol. 7: 965-76 (1995). In the initial screens, each 0.32 mL reaction mixture contained 5 μM test agent and 10 μM [^3H]vinblastine (specific activity 8.50 Ci/mmol; GE Healthcare Bio-Sciences, Picataway, N.J.) or 10 μM [^3H]dolastatin 10 (specific activity 1.96 Ci/mmol; obtained from the Drug Synthesis and Chemistry Branch of the National Cancer Institute) predissolved in DMSO (final concentration 1% v/v) and 10 μM bovine brain tubulin, all in 0.1 M 2-(4-morpholino)ethanesulfonic acid (Mes), pH 6.9, containing 0.5 mM MgCl2. The mixture was incubated for 30 min at room temperature. Two 0.15 mL aliquots of the reaction mixture were applied to duplicate 2 mL beds of pre-swollen (in Mes, pH 6.9, containing 0.5 mM MgCl2) Sephadex G-50 (superfine) contained in Handee columns (Pierce Biotechnology, Rockford, Ill.). The columns were centrifuged at 800×g for 4 minutes and the protein concentration in the effluent was determined, using the bicinchoninic acid assay. The amount of radiolabeled ligand bound to tubulin was determined using scintillation spectrometry. Each value represents the mean ±SD of four determinations. […] Inhibition was calculated as the percent difference relative to that of the control incubation with DMSO (i.e., without test agent—assigned as 0% inhibition). […] GraphPad Prism was used to fit the resulting data to the Hill equation to determine the IC50 values.

| SMILES | Microtubule Density MDEC (minimum detectable effective concentration) [1] | Mitotic Index MDEC (percentage of phosphohistone H3-positive cells) [1] | Nuclear Condensation MDEC (minimum detectable effective concentration) [1] | EC50 [1] | activity in high-content analysis of mitotic arrest (in words) ([1]; trifluoroacetic acid salt) | potency relative to paclitaxel, vincristine, or WZY-III-69A ([1]; all of the endpoints measured) | ability to inhibit [3H]vinblastine binding to isolated tubulin (in words) [2] | % Inhibition of [3H]vinblastine binding by 5 μM test agent [2] | IC50 [2] | activity in high-content analysis of mitotic arrest (in words) [1] |
| --- | --- | --- | --- | --- | --- | --- | --- | --- | --- | --- |
| CCC(C)[C@H](NC(=O)[C@H]1CCCCN1C)C(=O)N(C)[C@H](C[C@@H](OC(C)=O)c1nc(C(=O)N[C@@H](Cc2ccccc2)C[C@H](C)C(=O)O)cs1)C(C)C (some centres unmarked) [WZY-III-63C, N^14-Desacetoxytubulysin H trifluoroacetic acid salt] | 0.16 ± 0.05 nM | 0.10 ± 0.02 nM | 0.13 ± 0.04 nM | 0.00037 ± 9e-05 µM | active in the picomolar range; also recorded: almost two orders of magnitude more potent than vincristine or paclitaxel; also recorded: activity in the picomolar range | ~50 fold | equipotent to dolastatin 10 | 50 ± 4% | 5.6 ± 0.5 µM | – |
| CCC(C)[C@H](NC(=O)CN(C)C)C(=O)N(C)[C@H](C[C@H](OC(C)=O)c1nc(C(=O)N[C@@H](Cc2ccccc2)C[C@H](C)C(=O)O)cs1)C(C)C (stereo partly drawn) [WZY-III-64A, (2S,4R)-4-(2-((6S,9R,11S)-6-sec-Butyl-9-isopropyl-2,8-dimethyl-4,7,13-trioxo-12-oxa-2,5,8-triazatetradecan-11-yl)thiazole-4-carboxamido)-2-methyl-5-phenylpentanoic acid] | 56.6 ± 30.9 nM | 23.9 ± 5.8 nM | 32.4 ± 8.6 nM | 0.0957 ± 0.0208 µM | – | – | – | 2 ± 5% | > 50 µM | about five-fold less active |
| CCC(C)[C@H](NC(=O)CN(C)C)C(=O)N(C)[C@H](C[C@@H](OC(C)=O)c1nc(C(=O)N[C@@H](Cc2ccccc2)C[C@H](C)C(=O)O)cs1)C(C)C (stereo partly drawn) [WZY-III-69A, (2S,4R)-4-(2-((6S,9R,11R)-6-sec-Butyl-9-iso-propyl-2,8-dimethyl-4,7,13-trioxo-12-oxa-2,5,8-triazatetradecan-11-yl)thiazole-4-carboxamido)-2-methyl-5-phenylpentanoic acid] | 15.1 ± 11.1 nM | 2.5 ± 0.4 nM | 12.4 ± 10.2 nM | 0.0175 ± 0.0066 µM | – | – | – | 43 ± 1% | 8.8 ± 1.6 µM | as active as paclitaxel or vincristine |
